The results in this text go back to US20220340566A1, “BENZYL AMINE-CONTAINING 5,6-HETEROAROMATIC COMPOUNDS USEFUL AGAINST MYCOBACTERIAL INFECTION” (priority 2019, published 2022).

The subject of data set [1] is Mycobacterium avium ATCC700898. The experiment in a line: Determination of IC85 against M. avium (resazurin fluorescence). Type of data set: cell-based. Particulars: Mycobacterium avium, ATCC700898, M. avium ATCC700898, CAMHB medium, 37° C., 3 days incubation then resazurin, fluorescence one day later; read-out: IC85.
Data set [2] in a line: Metabolic stability test in pooled human liver microsomes. It counts as in vitro ADME. The following applies: human liver microsomes 0.5 mg protein/mL, 1 mmol/L NADPH, 37° C., 30 minutes. In a few lines: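 Remaining-rate readout: parent compound left after 30 min versus 0 min (set as 100%), measured by LC/MS/MS or SPE/MS. Oxidative reaction ran at 37° C. with 1 mmol/L NADPH, 0.5 mg protein/mL pooled human microsomes, 50 mmol/L Tris-HCl pH 7.4 buffer.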

As to `CCc1nc2cc(F)ccn2c1C(=O)NCc1ccc(N2CCN(c3ccc(OCC(F)(F)F)nc3)[C@@H](CC)C2)c(F)c1.Cl` [Compound I-2-3], the IC85 in data set [1] came out at 0.017 µM. Besides, the “MS_h_% (remaining amount of compound after reaction, 0 minute = 100%)” value in data set [2] stood at 90.3%.
As for `CCc1nc2cc(F)ccn2c1C(=O)NCc1ccc(N2CCN(c3ccc(OC(F)(F)F)cc3)[C@@H](CC)C2)c(F)c1.Cl` [Compound I-2-4], in data set [1], the IC85 came to 0.0065 µM. In addition, in data set [2], the “MS_h_% (remaining amount of compound after reaction, 0 minute = 100%)” value was 90.1%.
The matching figures for `Cc1nc2ccc(F)cn2c1C(=O)NCc1ccc(N2CCN(c3ccc(C(F)(F)F)cn3)CC2)c(C(F)(F)F)c1` [Compound I-2-5]: 0.42 µM and 81.8%.
`CCCC[C@H]1CN(c2ccc(CNC(=O)c3c(CC)nc4cc(F)ccn34)cc2F)CCN1c1ccc(OC(F)(F)F)cc1.Cl` [Compound I-2-6]: the IC85 in data set [1] was 0.0044 µM. Moreover, the “MS_h_% (remaining amount of compound after reaction, 0 minute = 100%)” value in data set [2] was determined as 80.8%.
Take `Cc1cn2c(C(=O)NCc3ccc(N4CCN(c5ccc(C(F)(F)F)cn5)CC4)c(C(F)(F)F)c3)c(C)nc2cc1Cl` [Compound I-2-7]: the IC85 in data set [1] was found to be 0.59 µM. Moreover, the “MS_h_% (remaining amount of compound after reaction, 0 minute = 100%)” value in data set [2] was determined as 79.3%.
With `Cc1nc2ccc(F)cn2c1C(=O)NCc1ccc(N2CC(c3ccc(OC(F)(F)F)cc3)C2)c(F)c1` [Compound I-2-8], the IC85 in data set [1] was 0.13 µM. For the same compound, the “MS_h_% (remaining amount of compound after reaction, 0 minute = 100%)” value in data set [2] was 74.9%.
Turning to `CC[C@H]1CN(c2ccc(CNC(=O)c3c(C)nn4ccc(OC)cc34)cc2F)CCN1c1ccc(OC(F)(F)F)cc1.Cl` [Compound I-2-9], the IC85 in data set [1] worked out at 0.019 µM. For the same compound, the “MS_h_% (remaining amount of compound after reaction, 0 minute = 100%)” value in data set [2] was 73.5%.
For the compound `CCc1nc2ccc(Cl)cn2c1C(=O)NCc1ccc(N2CCN(c3ccc(OC(F)(F)F)cc3F)[C@@H](CC)C2)c(F)c1.Cl` [Compound I-2-10], the IC85 in data set [1] was 0.023 µM. Moreover, the “MS_h_% (remaining amount of compound after reaction, 0 minute = 100%)” value in data set [2] is given as 72.2%.
On the same counts, the results for `Cc1nc2ccc(Br)cn2c1C(=O)NCc1ccc(N2CCN(c3ccc(C(F)(F)F)cn3)CC2)c(F)c1` [Compound I-2-11] are 0.02 µM and 71.7%.
As for `Cc1ccn2c(C(=O)NCc3ccc(N4CCN(c5ccc(OC(F)(F)F)cc5)CC4)c(F)c3)c(C)nc2c1` [Compound I-2-12], in data set [1], the IC85 was found to be 0.023 µM. Besides, the “MS_h_% (remaining amount of compound after reaction, 0 minute = 100%)” value in data set [2] was found to be 71.4%.
Regarding `Cc1ccn2c(C(=O)NCc3ccc(N4CCN(c5ccc(C(F)(F)F)cn5)CC4)c(C(F)(F)F)c3)c(C)nc2c1` [Compound I-2-13], the IC85 in data set [1] amounted to 0.35 µM. In addition, the “MS_h_% (remaining amount of compound after reaction, 0 minute = 100%)” value in data set [2] was 67.6%.
On the same counts, the results for `Cc1nc2ccc(Br)cn2c1C(=O)NCc1ccc(N2CCN(c3ccc(OC(F)(F)F)cc3)[C@@H](C)C2)c(F)c1` [Compound I-2-14] are 0.0045 µM and 67%.
With `Cc1ccn2c(C(=O)NCc3ccc(N4CCN(c5ccc(OC(F)(F)F)cc5)[C@@H](C)C4)c(C(F)(F)F)c3)c(C)nc2c1` [Compound I-2-15], in data set [1], the IC85 amounted to 0.25 µM. Moreover, the “MS_h_% (remaining amount of compound after reaction, 0 minute = 100%)” value in data set [2] turned out to be 59.2%.
As for `CCc1nc2ccc(Cl)cn2c1C(=O)NCc1ccc(N2CCN(c3ccc(OC(F)(F)F)cc3)C3(CCCC3)C2)c(F)c1` [Compound I-2-16], the IC85 in data set [1] amounted to 0.086 µM. Further, the “MS_h_% (remaining amount of compound after reaction, 0 minute = 100%)” value in data set [2] came out at 58.2%.
On the same counts, the results for `CCc1nc2cc(F)ccn2c1C(=O)NCc1ccc(O[C@H]2C[C@H](Oc3ccc(OC(F)(F)F)cc3)C2)c(F)c1.Cl` [Compound I-3-1] are 0.054 µM and 99.1%.
Regarding `CCc1nc2ccc(Cl)cn2c1C(=O)NCc1ccc(-c2cccc(OC(F)(F)F)c2)c(F)c1` [Compound I-3-2], the IC85 in data set [1] was 0.0023 µM. For the same compound, in data set [2], the “MS_h_% (remaining amount of compound after reaction, 0 minute = 100%)” value worked out at 97.7%.
For the compound `CCc1nc2ccc(Cl)cn2c1C(=O)NCc1ccc(-c2ccc(OC(C)C)cc2)c(F)c1` [Compound I-3-3], the IC85 in data set [1] came out at 0.0094 µM. Besides, the “MS_h_% (remaining amount of compound after reaction, 0 minute = 100%)” value in data set [2] is 96.1%.
Turning to `Cc1ccn2c(C(=O)NCc3ccc(-c4ccc(OCC(F)(F)F)cc4)c(F)c3)c(C)nc2c1` [Compound I-3-4], the IC85 in data set [1] came out at 0.043 µM. Further, the “MS_h_% (remaining amount of compound after reaction, 0 minute = 100%)” value in data set [2] was 94.6%.
As for `[2H]c1c(C([2H])([2H])[2H])c([2H])c2nc(C)c(C(=O)NCc3ccc(C4CCN(c5ccc(OC(F)(F)F)cc5)CC4)c(F)c3)n2c1[2H]` [Compound I-3-5], in data set [1], the IC85 came out at 0.021 µM. In data set [2], the “MS_h_% (remaining amount of compound after reaction, 0 minute = 100%)” value is recorded as 93.7%.
Regarding `Cc1cn2c(C(=O)NCc3ccc(N4CCC(c5ccc(OC(F)(F)F)cc5)CC4)c(F)c3)c(C)nc2s1.Cl` [Compound I-3-6], the IC85 in data set [1] was found to be 0.26 µM. The “MS_h_% (remaining amount of compound after reaction, 0 minute = 100%)” value in data set [2] is 91.7%.
In the case of `CCc1nc2ccc(Cl)cn2c1C(=O)NCc1ccc(-c2ccc(OC(F)(F)F)cc2)c(F)c1` [Compound I-3-7], in data set [1], the IC85 stood at 0.056 µM. For the same compound, in data set [2], the “MS_h_% (remaining amount of compound after reaction, 0 minute = 100%)” value is 89.5%.
As for `COc1ccn2nc(C)c(C(=O)NCc3ccc(N4CCC(c5ccc(OC(F)(F)F)cc5)CC4)cc3)c2c1` [Compound I-3-8], the IC85 in data set [1] came to 0.028 µM. Besides, the “MS_h_% (remaining amount of compound after reaction, 0 minute = 100%)” value in data set [2] came out at 87.1%.
On the same counts, the results for `Cc1ccn2c(C(=O)NCc3ccc(-c4ccc(OC(C)C)cc4)c(F)c3)c(C)nc2c1` [Compound I-3-9] are 0.13 µM and 85.9%.
`Cc1cn2c(C(=O)NCc3ccc(N4CCC5(CCN(c6ccc(C(F)(F)F)cc6)CC5)CC4)c(F)c3)c(C)nc2s1` [Compound I-3-10]: the IC85 in data set [1] was 0.029 µM. Moreover, the “MS_h_% (remaining amount of compound after reaction, 0 minute = 100%)” value in data set [2] is 84.9%.
`[2H]c1c(C([2H])([2H])[2H])c([2H])n2c(C(=O)NCc3ccc(-c4ccc(C(F)(F)F)cc4)cc3)c(C)nc2c1[2H]` [Compound I-3-11]: the IC85 in data set [1] was 0.0028 µM. Further, the “MS_h_% (remaining amount of compound after reaction, 0 minute = 100%)” value in data set [2] was 84.7%.
For the compound `Cc1cn2c(C(=O)NCc3ccc(N4CC=C(c5ccc(OC(F)(F)F)cc5)CC4)c(F)c3)c(C)nc2s1.Cl` [Compound I-3-12], the IC85 in data set [1] stood at 0.34 µM. For the same compound, the “MS_h_% (remaining amount of compound after reaction, 0 minute = 100%)” value in data set [2] is 84.4%.
The matching figures for `Cc1cn2c(C(=O)NCc3ccc(N4CCC(c5ccc(OC(F)(F)F)cc5)CC4)c(Cl)c3)c(C)nc2s1.Cl` [Compound I-3-13]: 0.35 µM and 84%.
As to `Cc1cn2c(C(=O)NCc3ccc(N4CCN(c5ccc(OC(F)(F)F)cc5)C(C)(C)C4)c(F)c3)c(C)nc2s1` [Compound I-3-14], the IC85 in data set [1] is 0.19 µM. Also, the “MS_h_% (remaining amount of compound after reaction, 0 minute = 100%)” value in data set [2] was 82.7%.
As to `[2H]c1c(C([2H])([2H])[2H])c([2H])n2c(C(=O)NCc3ccc(Oc4cccc(C(F)(F)F)c4)cc3)c(C)nc2c1[2H]` [Compound I-3-15], in data set [1], the IC85 amounted to 0.23 µM. In addition, the “MS_h_% (remaining amount of compound after reaction, 0 minute = 100%)” value in data set [2] is reported as 82.4%.
`Cc1cn2c(C(=O)NCc3cc(F)c(N4CCC(c5ccc(OC(F)(F)F)cc5)CC4)c(F)c3)c(C)nc2s1.Cl` [Compound I-3-16]: the IC85 in data set [1] is 0.11 µM. For the same compound, the “MS_h_% (remaining amount of compound after reaction, 0 minute = 100%)” value in data set [2] stood at 81.4%.
As to `Cc1ccn2c(C(=O)NCc3ccc4oc(-c5ccc(OC(F)(F)F)cc5)nc4c3)c(C)nc2c1.Cl` [Compound I-3-17], the IC85 in data set [1] was 0.86 µM. Moreover, in data set [2], the “MS_h_% (remaining amount of compound after reaction, 0 minute = 100%)” value worked out at 81.1%.
As to `CCc1nc2ccc(Cl)cn2c1C(=O)NCc1ccc(-c2ccc(OC(F)(F)F)cc2)nc1` [Compound I-3-18], the IC85 in data set [1] was determined as 0.19 µM. The “MS_h_% (remaining amount of compound after reaction, 0 minute = 100%)” value in data set [2] was found to be 80.9%.
For `Cc1ccn2c(C(=O)NCc3ccc(Oc4ccc(C(F)(F)F)cc4)cc3)c(C)nc2c1` [Compound I-3-19], the IC85 in data set [1] was determined as 0.44 µM. For the same compound, the “MS_h_% (remaining amount of compound after reaction, 0 minute = 100%)” value in data set [2] was 80.9%.
As for `CCc1nc2ccc(Cl)cn2c1C(=O)NCc1ccc(OC2CCC(Oc3ccc(OC(F)(F)F)cc3)CC2)c(F)c1.Cl` (stereo not shown) [Compound I-3-20], the IC85 in data set [1] turned out to be 0.018 µM. For the same compound, in data set [2], the “MS_h_% (remaining amount of compound after reaction, 0 minute = 100%)” value is reported as 80.8%.
In the case of `Cc1ccc2nc(C)c(C(=O)NCc3ccc(Oc4cccc(C(F)(F)F)c4)cc3)n2c1` [Compound I-3-21], in data set [1], the IC85 worked out at 0.13 µM. Further, the “MS_h_% (remaining amount of compound after reaction, 0 minute = 100%)” value in data set [2] is given as 79.1%.
For `Cc1cn2c(C(=O)NCc3ccc(-c4ccc(OC(C)C)cc4)c(F)c3)c(C)nc2s1` [Compound I-3-22], the IC85 in data set [1] amounted to 0.37 µM. The “MS_h_% (remaining amount of compound after reaction, 0 minute = 100%)” value in data set [2] came to 78.5%.
In the case of `Cc1nc2ccc(F)cn2c1C(=O)NCc1ccc(N2CCN(c3ccc(OC(F)(F)F)cc3)[C@@H](C)C2)cc1` [Compound I-3-23], in data set [1], the IC85 turned out to be 0.015 µM. The “MS_h_% (remaining amount of compound after reaction, 0 minute = 100%)” value in data set [2] stood at 77.8%.
On the same counts, the results for `Cc1nc2ccc(Cl)cn2c1C(=O)NCc1cc(F)c2c(c1)CCN(C1CC=C(OC(F)(F)F)CC1)C2.Cl` (stereo not shown) [Compound I-3-24] are 0.13 µM and 77.5%.
For the compound `CCc1nc2ccc(Cl)cn2c1C(=O)NCc1ccc(-n2ccc(C(F)(F)F)n2)cc1` [Compound I-3-25], the IC85 in data set [1] came to 0.14 µM. The “MS_h_% (remaining amount of compound after reaction, 0 minute = 100%)” value in data set [2] is given as 77%.
Take `Cc1ccn2c(C(=O)NCc3ccc(N4CCN(C5CN(CC(F)(F)F)C5)[C@@H](C)C4)c(F)c3)c(C)nc2c1` [Compound I-3-26]: in data set [1], the IC85 was found to be 0.96 µM. The “MS_h_% (remaining amount of compound after reaction, 0 minute = 100%)” value in data set [2] worked out at 77%.
As for `Cc1nc2ccc(Cl)cn2c1C(=O)NCc1ccc(N2CCC(c3ccc(OC(F)(F)F)cc3)CC2)cc1` [Compound I-3-27], in data set [1], the IC85 was 0.012 µM. For the same compound, in data set [2], the “MS_h_% (remaining amount of compound after reaction, 0 minute = 100%)” value was 75.5%.
